From patent US20060063759A1, “Tricyclic steroid hormone nuclear receptor modulators” (priority 2002, published 2006)

Assays:
human MR = target: T1, human MR (Homo sapiens, UniProt P08235); assay: Mineralocorticoid Receptor Binding Assay ([3H]-aldosterone); conditions: [3H]-aldosterone binding, human MR expressed in Sf9 cells; read-out: MR Ki
T1 construct: The full length human MR gene is cloned from a human kidney or human brain cDNA library; His tag from the pAcHLT vector (own knowledge); made in house; host or cells: Sf9 insect cells (baculovirus, pAcHLT transfer vector)
T1 sequence (P08235 1-984): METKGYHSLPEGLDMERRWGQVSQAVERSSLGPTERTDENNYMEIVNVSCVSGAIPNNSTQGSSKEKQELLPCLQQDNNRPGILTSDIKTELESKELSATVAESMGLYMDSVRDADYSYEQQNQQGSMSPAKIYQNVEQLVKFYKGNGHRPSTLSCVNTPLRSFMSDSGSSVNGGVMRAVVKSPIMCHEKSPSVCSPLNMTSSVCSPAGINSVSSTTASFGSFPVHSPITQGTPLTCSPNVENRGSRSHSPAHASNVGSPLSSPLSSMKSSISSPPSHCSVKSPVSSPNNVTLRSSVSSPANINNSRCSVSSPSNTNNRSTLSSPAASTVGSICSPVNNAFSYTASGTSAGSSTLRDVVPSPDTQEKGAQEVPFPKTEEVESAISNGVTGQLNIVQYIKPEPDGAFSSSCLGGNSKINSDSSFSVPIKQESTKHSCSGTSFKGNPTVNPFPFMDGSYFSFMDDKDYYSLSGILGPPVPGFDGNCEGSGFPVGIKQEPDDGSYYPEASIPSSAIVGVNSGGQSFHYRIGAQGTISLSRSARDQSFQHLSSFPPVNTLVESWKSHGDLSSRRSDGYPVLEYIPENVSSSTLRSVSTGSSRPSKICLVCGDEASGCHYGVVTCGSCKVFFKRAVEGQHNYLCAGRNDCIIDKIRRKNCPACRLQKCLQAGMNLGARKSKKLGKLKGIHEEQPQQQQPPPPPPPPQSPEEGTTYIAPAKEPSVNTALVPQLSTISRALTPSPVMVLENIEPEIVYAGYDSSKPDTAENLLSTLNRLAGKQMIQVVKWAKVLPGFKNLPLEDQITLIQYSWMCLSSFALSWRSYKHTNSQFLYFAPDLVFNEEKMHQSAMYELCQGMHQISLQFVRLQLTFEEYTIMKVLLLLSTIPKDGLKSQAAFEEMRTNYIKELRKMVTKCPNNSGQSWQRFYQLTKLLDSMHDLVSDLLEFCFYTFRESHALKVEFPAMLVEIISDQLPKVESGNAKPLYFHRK
Procedure, shortened: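 Receptor source: freeze-thaw lysate of baculovirus-infected Sf9 cells carrying full-length human MR, 20-25 μg protein. Incubation ~16 h at 4 °C with shaking, pH 7.5 buffer containing 30 mM sodium molybdate and 10% glycerol.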

glucocorticoid receptor = target: T2, glucocorticoid receptor (Homo sapiens, UniProt P04150); assay: Glucocorticoid Receptor Binding Assay ([3H]-dexamethasone, A549 cell extract); conditions: [3H]-dexamethasone binding, read-out: GR Ki
T2 construct: containing 50-200 ug of A549 cell extract and 1.86 nM [^3H]-dexamethasone; host or cells: A549 human lung epithelial cells (sonicated cell extract)
T2 sequence (P04150 1-777): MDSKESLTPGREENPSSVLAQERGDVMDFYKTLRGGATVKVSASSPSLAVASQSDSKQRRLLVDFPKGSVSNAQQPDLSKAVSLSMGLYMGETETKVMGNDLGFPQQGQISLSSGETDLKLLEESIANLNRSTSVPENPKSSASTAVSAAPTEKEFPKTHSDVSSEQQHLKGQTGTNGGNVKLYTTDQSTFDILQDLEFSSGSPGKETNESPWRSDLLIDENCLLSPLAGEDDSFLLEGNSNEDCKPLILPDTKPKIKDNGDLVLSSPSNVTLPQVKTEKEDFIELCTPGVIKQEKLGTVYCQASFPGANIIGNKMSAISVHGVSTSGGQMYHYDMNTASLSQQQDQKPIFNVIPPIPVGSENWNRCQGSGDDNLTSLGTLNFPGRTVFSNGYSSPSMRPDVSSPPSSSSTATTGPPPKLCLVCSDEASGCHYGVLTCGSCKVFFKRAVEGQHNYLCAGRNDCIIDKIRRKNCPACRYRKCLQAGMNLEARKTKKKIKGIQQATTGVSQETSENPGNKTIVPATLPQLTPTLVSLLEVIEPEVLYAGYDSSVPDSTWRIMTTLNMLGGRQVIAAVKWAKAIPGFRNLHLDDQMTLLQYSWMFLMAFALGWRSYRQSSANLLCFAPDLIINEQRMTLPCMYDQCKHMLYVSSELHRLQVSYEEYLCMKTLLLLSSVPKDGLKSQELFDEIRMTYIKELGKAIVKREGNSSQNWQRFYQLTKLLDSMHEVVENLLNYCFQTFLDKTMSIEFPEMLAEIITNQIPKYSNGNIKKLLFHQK
Procedure, shortened: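 Displacement of [3H]-dexamethasone (1.86 nM) from glucocorticoid receptor in sonicated A549 lung epithelial cell extracts, 16 h at 4 °C, pH 7.2 molybdate-containing buffer. Bound radioactivity was scintillation-counted after charcoal/dextran stripping of free ligand.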

Row | SMILES | Ki (human MR) | Ki (glucocorticoid receptor)
1 | CN(c1cccc(/C=C2\c3ccccc3COc3cc(Cl)ccc32)c1)S(C)(=O)=O [Example 667] | < 1000 nM | < 10000 nM
2 | CS(=O)(=O)Nc1cccc(/C=C2/c3ccccc3COc3ccc(Cl)cc32)c1 [Example 680] | < 500 nM | < 1000 nM
3 | CS(=O)(=O)Nc1cccc(/C=C2\c3ccccc3COc3ccc(Cl)cc32)c1 [Example 681] | < 500 nM | < 500 nM
4 | CS(=O)(=O)Nc1cccc(/C=C2/c3ccccc3COc3cc(C(F)(F)F)ccc32)c1 [Example 682] | < 500 nM | < 500 nM
5 | CS(=O)(=O)Nc1cccc(/C=C2\c3ccccc3COc3cc(C(F)(F)F)ccc32)c1 [Example 683] | < 500 nM | < 500 nM
6 | COc1ccc2c(c1OC)CSc1ccccc1/C2=C/c1cccc(NS(C)(=O)=O)c1 [Example 684] | < 500 nM | < 500 nM
7 | COc1ccc2c(c1OC)CSc1ccccc1/C2=C\c1cccc(NS(C)(=O)=O)c1 [Example 685] | < 500 nM | < 500 nM
8 | COc1cc2c(c(OC)c1)/C(=C\c1cccc(NS(C)(=O)=O)c1)c1ccccc1SC2 [Example 687] | < 500 nM | < 500 nM
9 | COc1ccc(C=C2c3ccccc3CSc3ccccc32)cn1 [Example 688] | < 500 nM | < 500 nM
10 | CC(=O)Nc1cccc(/C=C2\c3ccccc3CSc3ccccc32)c1 [Example 691] | < 1000 nM | < 500 nM
11 | COc1ccc2c(c1)CSc1ccccc1/C2=C/c1cccc(NS(C)(=O)=O)c1 [Example 692] | < 500 nM | < 500 nM
12 | CS(=O)(=O)Nc1cccc(C=C2c3ccc(Cl)cc3CSc3ccccc32)c1 [Example 693] | < 500 nM | < 500 nM
13 | COc1ccc2c(c1)SCc1ccccc1/C2=C\c1cccc(NS(C)(=O)=O)c1 [Example 694] | < 500 nM | < 500 nM
14 | Cc1cccc2c1SCc1ccccc1C2=Cc1cccc(NS(C)(=O)=O)c1 [Example 695] | < 500 nM | < 500 nM
15 | COc1cccc2c1/C(=C\c1cccc(NS(C)(=O)=O)c1)c1ccccc1SC2 [Example 696] | < 500 nM | < 500 nM
16 | O=S(=O)(Nc1cccc(/C=C2\c3ccccc3CSc3ccccc32)c1)C1CC1 [Example 698] | < 1000 nM | < 500 nM
17 | OCc1cccc(/C=C2\c3ccccc3CSc3ccccc32)c1 [Example 699] | < 500 nM | < 500 nM
18 | O=S(=O)(Cc1cccc(/C=C2\c3ccccc3CSc3ccccc32)c1)c1cccc(C(F)(F)F)c1 [Example 700] | < 500 nM | < 500 nM
19 | C(=C1c2ccccc2CSc2ccccc21)c1ccccc1 [Example 701] | < 500 nM | < 500 nM
20 | CS(=O)(=O)Nc1cccc(C=C2c3ccc(Cl)cc3CSc3cc(Cl)ccc32)c1 [Example 702] | < 500 nM | < 10000 nM
21 | COc1cccc2c1/C(=C/c1cccc(NS(C)(=O)=O)c1)c1ccccc1OC2 [Example 703] | < 500 nM | < 500 nM
22 | COc1cccc2c1/C(=C\c1cccc(NS(C)(=O)=O)c1)c1ccccc1OC2 [Example 704] | < 500 nM | < 500 nM
23 | COc1ccc2c(c1)COc1ccccc1/C2=C\c1cccc(NS(C)(=O)=O)c1 [Example 705] | < 500 nM | < 500 nM
24 | COc1ccc2c(c1)OCc1ccccc1/C2=C/c1cccc(NS(C)(=O)=O)c1 [Example 706] | < 500 nM | < 500 nM
25 | COc1cccc2c1COc1ccccc1/C2=C\c1cccc(NS(C)(=O)=O)c1 [Example 707] | < 500 nM | < 500 nM
26 | COc1cccc2c1COc1ccccc1/C2=C/c1cccc(NS(C)(=O)=O)c1 [Example 708] | < 500 nM | < 500 nM
27 | O=c1[nH]c2cc(/C=C3/c4ccccc4COc4cc(F)ccc43)ccc2n1C1CC1 [Example 709] | < 500 nM | < 500 nM
28 | CC(C)Cn1c(=O)[nH]c2cc(/C=C3\c4ccccc4COc4cc(F)ccc43)ccc21 [Example 710] | < 500 nM | < 500 nM
29 | CC(C)Cn1c(=O)[nH]c2cc(/C=C3/c4ccccc4COc4cc(F)ccc43)ccc21 [Example 711] | < 500 nM | < 1000 nM

The next lines start with the values.

Row | Ki (human MR) | Ki (glucocorticoid receptor) | SMILES
30 | < 500 nM | < 500 nM | COc1ccc2c(c1)OCc1ccccc1/C2=C/c1cccc(NS(C)(=O)=O)c1 [Example 660]
31 | < 500 nM | < 500 nM | COc1ccc2c(c1)OCc1ccccc1/C2=C\c1cccc(NS(C)(=O)=O)c1 [Example 661]
32 | < 500 nM | < 500 nM | CS(=O)(=O)Nc1cccc(/C=C2/c3ccccc3COc3c(Cl)cccc32)c1 [Example 662]
33 | < 500 nM | < 500 nM | CS(=O)(=O)Nc1cccc(/C=C2\c3ccccc3COc3c(Cl)cccc32)c1 [Example 663]
34 | < 500 nM | < 500 nM | CS(=O)(=O)Nc1cccc(/C=C2/c3ccccc3COc3cc(Cl)ccc32)c1 [Example 664]
35 | < 500 nM | < 500 nM | CS(=O)(=O)Nc1cccc(/C=C2\c3ccccc3COc3cc(Cl)ccc32)c1 [Example 665]
36 | < 500 nM | < 500 nM | CN(c1cccc(/C=C2/c3ccccc3COc3c(Cl)cccc32)c1)S(C)(=O)=O [Example 666]
37 | < 500 nM | < 1000 nM | COc1cc2c(cc1Br)/C(=C/c1cccc(NS(C)(=O)=O)c1)c1ccccc1CO2 [Example 668]
38 | < 500 nM | < 500 nM | COc1cccc2c1OCc1ccccc1/C2=C/c1cccc(NS(C)(=O)=O)c1 [Example 669]
39 | < 500 nM | < 500 nM | CS(=O)(=O)Nc1cccc(/C=C2\c3ccccc3COc3c(F)cccc32)c1 [Example 670]
40 | < 500 nM | < 500 nM | CS(=O)(=O)Nc1cccc(/C=C2/c3ccccc3COc3ccc(F)cc32)c1 [Example 671]
41 | < 500 nM | < 500 nM | CS(=O)(=O)Nc1cccc(/C=C2\c3ccccc3COc3ccc(F)cc32)c1 [Example 672]
42 | < 500 nM | < 500 nM | Cc1cccc2c1OCc1ccccc1/C2=C/c1cccc(NS(C)(=O)=O)c1 [Example 673]
43 | < 500 nM | < 500 nM | Cc1cccc2c1OCc1ccccc1/C2=C\c1cccc(NS(C)(=O)=O)c1 [Example 674]
44 | < 500 nM | < 500 nM | Cc1ccc2c(c1)OCc1ccccc1/C2=C/c1cccc(NS(C)(=O)=O)c1 [Example 675]
45 | < 500 nM | < 500 nM | Cc1ccc2c(c1)OCc1ccccc1/C2=C\c1cccc(NS(C)(=O)=O)c1 [Example 676]
46 | < 500 nM | < 500 nM | Cc1ccc2c(c1)/C(=C\c1cccc(NS(C)(=O)=O)c1)c1ccccc1CO2 [Example 677]
47 | < 500 nM | < 500 nM | COc1ccc2c(c1)/C(=C/c1cccc(NS(C)(=O)=O)c1)c1ccccc1CO2 [Example 679]
